Assay results reported in patent US9708314B2, “Heterocyclic amide compound” (NISSAN CHEMICAL INDUSTRIES, LTD., priority 2013, dated 2017).

Assays:
Type in all cases: in vivo
[1] = test system: directly sowed Oryza sativa; assay: Test Example 3: effect on crop by application to foliage (Wagner pot, water depth 0.1-0.5 cm); conditions: Nineteenth Table; application herbicide amount 320 g/ha
Method in brief: (§1)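 Alluvial soil in 1/10000 are Wagner pots, sown and grown 14 days in a 25–30 °C greenhouse. An emulsifiable concentrate diluted in water to the set dose (g/ha) was sprayed on stems and leaves. Effect scored three weeks later on a 0–5 scale: 5 = ≥90% herbicidal ratio, 0 = ≤5%.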

Cyperus difformis = assay: Test Example 3: herbicidal effect by application to foliage (Wagner pot, water depth 0.1-0.5 cm); conditions: Nineteenth Table; application herbicide amount 320 g/ha
Method in brief: as §1

[2] = test system: Echinochloa crus-galli var. crus-galli; assay: as above; conditions: Nineteenth Table; application herbicide amount 320 g/ha
Method in brief: as §1

Leptochloa chinensis = assay: as above; conditions: Nineteenth Table; application herbicide amount 320 g/ha
Method in brief: as §1

Triticum aestivum = assay: Test Example 4: effect on crop by application to foliage (diluvial soil, plastic box); conditions: application to foliage, application herbicide amount 320 g/ha
Method in brief: (§2)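 Emulsion-formulated compound, diluted to a predetermined g/ha dose, applied by small sprayer to leaves and stems of 14-day-old seedlings grown in sterilized diluvial soil. Effect rated on 0–5 herbicidal-ratio scale three weeks on.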

Zea mays = assay: as above; conditions: application to foliage, application herbicide amount 320 g/ha
Method in brief: as §2

Scirpus juncoides = assay: Test Example 2: herbicidal activity, application during weed generation in submerged conditions; conditions: Eighteenth Table; application herbicide amount 320 g/ha
Method in brief: (§3)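 Post-emergence application under submerged conditions: water-diluted emulsion dosed onto the water surface (g/ha) when weeds reach one- to two-leaf stage. Soil flooded to 4 cm; greenhouse 25–30 °C. Herbicidal ratio graded in six classes, 0 (≤5%) to 5 (≥90%), at three weeks.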

[3] = test system: Echinochloa oryzacola Vasing.; assay: as above; conditions: Eighteenth Table; application herbicide amount 320 g/ha
Method in brief: as §3

Monochoria vaginalis = assay: as above; conditions: Eighteenth Table; application herbicide amount 320 g/ha
Method in brief: as §3

Row | Compound | b (directly sowed Oryza sativa) effect on crop grade [1] | E (Cyperus difformis) herbicidal ratio grade (Cyperus difformis) | H (Echinochloa crus-galli var. crus-galli) herbicidal ratio grade [2] | D (Leptochloa chinensis) herbicidal ratio grade (Leptochloa chinensis) | e (Triticum aestivum) effect on crop (Triticum aestivum) | b (Zea mays) effect on crop (Zea mays) | B (Scirpus juncoides) herbicidal ratio grade (Scirpus juncoides) | A (Echinochloa oryzicola Vasing.) herbicidal ratio grade [3] | C (Monochoria vaginalis) herbicidal ratio grade (Monochoria vaginalis)
1 | Cc1nnc(NC(=O)c2ccc(C(F)(F)F)n3c(C[S+]([O-])CC(F)(F)F)nnc23)o1 (stereo not drawn) [1-038] | 2 (Herbicidal ratio of 20% or more and less than 40%) | 4 (Herbicidal ratio of 70% or more and less than 90%) | 5 (Herbicidal ratio of 90% or more (almost completely withered)) | 5 (Herbicidal ratio of 90% or more (almost completely withered)) | 1 (Herbicidal ratio of 5% or more and less than 20%) | 0 (Herbicidal ratio of 5% or less (almost no effect)) | 1 (Herbicidal ratio of 5% or more and less than 20%) | 1 (Herbicidal ratio of 5% or more and less than 20%) | 0 (Herbicidal ratio of 5% or less (almost no effect))
2 | Cc1ccc(-c2nnc3c(C(=O)Nc4nnc(C)o4)ccc(C(F)(F)F)n23)cc1 [1-043] | 5 (Herbicidal ratio of 90% or more (almost completely withered)) | 5 (Herbicidal ratio of 90% or more (almost completely withered)) | 5 (Herbicidal ratio of 90% or more (almost completely withered)) | 4 (Herbicidal ratio of 70% or more and less than 90%) | 0 (Herbicidal ratio of 5% or less (almost no effect)) | 4 (Herbicidal ratio of 70% or more and less than 90%) | 3 (Herbicidal ratio of 40% or more and less than 70%) | 3 (Herbicidal ratio of 40% or more and less than 70%) | 3 (Herbicidal ratio of 40% or more and less than 70%)
3 | Cc1nnc(NC(=O)c2ccc(C(F)(F)F)n3c(-c4ccc(F)cc4)nnc23)o1 [1-044] | 3 (Herbicidal ratio of 40% or more and less than 70%) | 4 (Herbicidal ratio of 70% or more and less than 90%) | 5 (Herbicidal ratio of 90% or more (almost completely withered)) | 4 (Herbicidal ratio of 70% or more and less than 90%) | 0 (Herbicidal ratio of 5% or less (almost no effect)) | 0 (Herbicidal ratio of 5% or less (almost no effect)) | 3 (Herbicidal ratio of 40% or more and less than 70%) | 2 (Herbicidal ratio of 20% or more and less than 40%) | 2 (Herbicidal ratio of 20% or more and less than 40%)
4 | COc1ccccc1-c1nnc2c(C(=O)Nc3nnc(C)o3)ccc(C(F)(F)F)n12 [1-047] | 3 (Herbicidal ratio of 40% or more and less than 70%) | 4 (Herbicidal ratio of 70% or more and less than 90%) | 5 (Herbicidal ratio of 90% or more (almost completely withered)) | 5 (Herbicidal ratio of 90% or more (almost completely withered)) | 0 (Herbicidal ratio of 5% or less (almost no effect)) | 0 (Herbicidal ratio of 5% or less (almost no effect)) | 2 (Herbicidal ratio of 20% or more and less than 40%) | 3 (Herbicidal ratio of 40% or more and less than 70%) | 3 (Herbicidal ratio of 40% or more and less than 70%)
5 | Cc1nnc(NC(=O)c2ccc(C(F)(F)F)n3c(CC(=O)O)nnc23)o1 [1-048] | 0 (Herbicidal ratio of 5% or less (almost no effect)) | 3 (Herbicidal ratio of 40% or more and less than 70%) | 5 (Herbicidal ratio of 90% or more (almost completely withered)) | 4 (Herbicidal ratio of 70% or more and less than 90%) | 1 (Herbicidal ratio of 5% or more and less than 20%) | 0 (Herbicidal ratio of 5% or less (almost no effect)) | 1 (Herbicidal ratio of 5% or more and less than 20%) | 0 (Herbicidal ratio of 5% or less (almost no effect)) | 0 (Herbicidal ratio of 5% or less (almost no effect))
6 | Cc1nnc(NC(=O)c2ccc(C(F)(F)F)n3c(CC(=O)OC(C)C)nnc23)o1 [1-049] | 1 (Herbicidal ratio of 5% or more and less than 20%) | 4 (Herbicidal ratio of 70% or more and less than 90%) | 5 (Herbicidal ratio of 90% or more (almost completely withered)) | 4 (Herbicidal ratio of 70% or more and less than 90%) | 1 (Herbicidal ratio of 5% or more and less than 20%) | 0 (Herbicidal ratio of 5% or less (almost no effect)) | 2 (Herbicidal ratio of 20% or more and less than 40%) | 4 (Herbicidal ratio of 70% or more and less than 90%) | 2 (Herbicidal ratio of 20% or more and less than 40%)
7 | CC(C)c1nnc2c(C(=O)Nc3nnco3)ccc(C(F)(F)F)n12 [1-050] | 1 (Herbicidal ratio of 5% or more and less than 20%) | 5 (Herbicidal ratio of 90% or more (almost completely withered)) | 5 (Herbicidal ratio of 90% or more (almost completely withered)) | 5 (Herbicidal ratio of 90% or more (almost completely withered)) | 3 (Herbicidal ratio of 40% or more and less than 70%) | 1 (Herbicidal ratio of 5% or more and less than 20%) | 4 (Herbicidal ratio of 70% or more and less than 90%) | 5 (Herbicidal ratio of 90% or more (almost completely withered)) | 3 (Herbicidal ratio of 40% or more and less than 70%)
8 | CC(C)c1nnc2c(C(=O)Nc3nnc(C4CC4)o3)ccc(C(F)(F)F)n12 [1-051] | 0 (Herbicidal ratio of 5% or less (almost no effect)) | 4 (Herbicidal ratio of 70% or more and less than 90%) | 4 (Herbicidal ratio of 70% or more and less than 90%) | 5 (Herbicidal ratio of 90% or more (almost completely withered)) | 1 (Herbicidal ratio of 5% or more and less than 20%) | 0 (Herbicidal ratio of 5% or less (almost no effect)) | 3 (Herbicidal ratio of 40% or more and less than 70%) | 4 (Herbicidal ratio of 70% or more and less than 90%) | 4 (Herbicidal ratio of 70% or more and less than 90%)
9 | COCCc1nnc(NC(=O)c2ccc(C(F)(F)F)n3c(C(C)C)nnc23)o1 [1-052] | 0 (Herbicidal ratio of 5% or less (almost no effect)) | 5 (Herbicidal ratio of 90% or more (almost completely withered)) | 4 (Herbicidal ratio of 70% or more and less than 90%) | 5 (Herbicidal ratio of 90% or more (almost completely withered)) | 0 (Herbicidal ratio of 5% or less (almost no effect)) | 0 (Herbicidal ratio of 5% or less (almost no effect)) | 1 (Herbicidal ratio of 5% or more and less than 20%) | 1 (Herbicidal ratio of 5% or more and less than 20%) | 0 (Herbicidal ratio of 5% or less (almost no effect))
10 | Cc1nnc(NC(=O)c2ccc(C(F)F)n3c(C(C)C)nnc23)o1 [1-053] | 0 (Herbicidal ratio of 5% or less (almost no effect)) | 4 (Herbicidal ratio of 70% or more and less than 90%) | 4 (Herbicidal ratio of 70% or more and less than 90%) | 4 (Herbicidal ratio of 70% or more and less than 90%) | 0 (Herbicidal ratio of 5% or less (almost no effect)) | 0 (Herbicidal ratio of 5% or less (almost no effect)) | 2 (Herbicidal ratio of 20% or more and less than 40%) | 1 (Herbicidal ratio of 5% or more and less than 20%) | 0 (Herbicidal ratio of 5% or less (almost no effect))
